In ChEMBL document CHEMBL3045175, “Synthesis and Neuromuscular Blocking Activity of 16-Piperidino Epiandrosterone Derivatives” (Med Chem Res, 2005):
Active and inactive are the calls of the source. The calls are words filed in the database; no cut-off is given here.

Legend:
Gallus gallus [1] = species on record: Gallus gallus; experiment: Binding affinity to acetylcholine receptor in isolated Gallus gallus (chicken) biventar cervicis muscle assessed as reduction of twitch response to carbachol in presence of neostigmine
Gallus gallus [2] = species on record: Gallus gallus; experiment: Binding affinity to acetylcholine receptor in isolated Gallus gallus (chicken) biventar cervicis muscle assessed as reduction of twitch response to carbachol at 5 uM up to 10 min
Gallus gallus [3] = species on record: Gallus gallus; experiment: Binding affinity to acetylcholine receptor in isolated Gallus gallus (chicken) biventar cervicis muscle assessed as reduction of twitch response to carbachol
Gallus gallus [4] = species on record: Gallus gallus; experiment: Binding affinity to acetylcholine receptor in isolated Gallus gallus (chicken) biventar cervicis muscle assessed as reduction of twitch response to carbachol after washout
Electrophorus electricus = experiment: (§1) Inhibition of Electrophorus electricus (electric eel) acetylcholinesterase
[5] = as §1
Gallus gallus [6] = species on record: Gallus gallus; experiment: Binding affinity to acetylcholine receptor in isolated Gallus gallus (chicken) biventar cervicis muscle assessed as reduction of twitch response to carbachol at 1 uM up to 10 min

Row | Structure (SMILES) | Activity (Gallus gallus [1]) | Activity (Gallus gallus [2]) | K (Gallus gallus [3]) | Activity (Gallus gallus [4]) | inhibition (Electrophorus electricus) | Ki [5] | Activity (Gallus gallus [6])
1 | C[C@]12CC[C@H](N3CCCC3)C[C@@H]1CC[C@@H]1[C@@H]2CC[C@]2(C)[C@@H](O)[C@@H](N3CCCCC3)C[C@@H]12 | inactive | Active | 0.9 µM | inactive | Dose-dependent effect | 620 nM | –
2 | CC(=O)O[C@H]1[C@@H](N2CCCCC2)C[C@H]2[C@@H]3CC[C@H]4C[C@@H](N5CCCC5)CC[C@]4(C)[C@H]3CC[C@@]21C | inactive | – | 0.2 µM | inactive | Dose-dependent effect | 980 nM | Active
